From publication PMC8997995, “Amphiphilic Cell-Penetrating Peptides Containing Natural and Unnatural Amino Acids as Drug Delivery Agents” (Cells, 2022)
Where two headings read alike, the source gives them in different places. Non-standard residues stand in square brackets, D forms with d. Residues, ends and D or L forms follow the SMILES beside them. *: point of attachment. 5FAM = O=C1OC2(c3ccc(O)cc3Oc3cc(O)ccc32)c2ccc(C(=O)*)cc21; Dip = N[C@H](C(=O)O)C(c1ccccc1)c1ccccc1

Key:
[1] = design: method as in earlier work; conditions: cited from earlier work
Source text: In continuation of our efforts to design cyclic CPPs with improved molecular transporter properties, we report here the design and synthesis of a new class of CPPs, containing R, diphenylalanine (Dip), and W residues (Figure 1), the evaluation of their cytotoxicity, cellular uptake, nanostructure formation, and mechanism of actions.

CCRF-CEM cells [2] = test: In vitro cytotoxicity (MTS) in CCRF-CEM cells; assay type: cell-based, human; conditions: for reduction of cell proliferation: 25 µM, MTS, n = 3
Experimental: (§1) SK-OV-3, CCRF-CEM, HEK-293, MDA-MB-468, LLC-PK1, and MES-SA were used to determine the cytotoxicity of the synthesized linear and cyclic peptides. About 5000, 10,000, and 50,000 cells were seeded for SK-OV-3, HEK-293, and CCRF-CEM cells, respectively, in 0.1 mL of medium per well of 96-well plates. An appropriate medium was used for each cell line (SK-OV-3: McCoy’s 5A with L-glutamine containing fetal bovine serum (FBS) (10%) and penicillin or streptomycin (1%); CCRF-CEM: RPMI-1640 medium with L-glutamine and sodium bicarbonate containing FBS (10%) and penicillin or streptomycin (1%); MDA-MB-468 cells: DMEM/F12 (1:1) (1×) with L-glutamine and 15 mM HEPES containing FBS (10%) and penicillin or streptomycin (1%); LLC-PK1 cells: Dulbecco’s Modified Eagle’s Medium with 4500 mg/L glucose, L-glutamine and sodium bicarbonate, without sodium pyruvate liquid containing FBS (10%) and penicillin or streptomycin (1%); MES-SA cells: consisting of half SK-OV-3 and half CCRF-CEM media; and HEK-293 cells: Minimum Essential Medium Eagle with Earle’s salts and sodium bicarbonate, without L-glutamine containing FBS (10%) and penicillin or streptomycin (1%)). Then, 20 µL of peptides containing 5% DMSO in water were added to each well.
(§2) Adhesive cells were detached with 0.05% trypsin/EDTA after 15 min. The suspended cells were seeded in the medium 24 h prior to the experiment according to the previously reported procedure. The medium was changed before adding the peptides for adherent cells. Each concentration 5, 10, 25, 50, and 166 µM (containing 0.8% DMSO) had triplicate wells to minimize possible errors. […] The cell viability was measured by utilizing Multi-Mode Microplate Reader (SpectraMax M5 model, Molecular Devices, San Jose, CA, USA) after adding 20 µL of the MTS reagent to each well and incubating for 3 additional hours. […] The protocol manager was selected “endpoint” on the spectrophotometer’s software (SoftMax Pro 7). The 96-well plates were inserted inside spectrophotometer, and the data were acquired. The percentage of cell viability was calculated using the following equation:(1) =(Average OD values of samples treated with the compound /Average OD values of no treatment samples )∗100

[3] = Circular dichroism, estimate of secondary structure; assay type: physicochemical; conditions: CD, 100 µM peptide in water, principal component regression analysis
Experimental: Samples were prepared in 100 µM concentration dissolved in water only. The cuvette with the 1 mm path length was used for all the measurements. The circular dichroism analysis was performed with a J-1500 Jasco spectrophotometer using nitrogen gas and PM-539 detector. Parameters were selected as follows: data interval 0.1 nm, data points 701, data pitch 0.1 nm, CD scale 200 mdeg/0.1 dOD, FL scale 200 mdeg/0.1 dOD, D.I.T 2 s, bandwidth 1 nm, cell length 1 mm, start mode immediately, scanning mode continuous, scanning speed 50 nm/min, shutter control auto, and N2 flowmeter manual. An average of three readings between 190 and 260 nm were collected for each sample. The analysis was carried out using one of Multivariate Regression Analyses, which is Principal Component Regression (PCR) with a basis set containing 26 proteins reference under the following conditions: standardization of result 100, replaced negative value to zero, and rejection percentage of 1%.

CCRF-CEM cells [4] = test: Cellular uptake by flow cytometry in CCRF-CEM cells; assay type: cell-based, human; conditions: peptide 10 µM, 3 h, no FBS, flow cytometry FITC, n = 3
Experimental: CCRF-CEM and SK-OV-3 cells were used to measure the cellular uptake of a fluorescent-labeled phosphopeptide (F’-GpYEEI) (2 µM), stavudine (F’-d4T) (2 µM) lamivudine (F’-3TC) (1–2 µM), emtricitabine (F’-FTC) (2 µM), and siRNA (F’-siRNA) (36 nM) with the least toxic concentration for each linear and the cyclic peptide (10 µM). The uptake was measured in the presence and absence of the peptides. The SK-OV-3 (0.5 million) and CCRF-CEM (a million) cells were incubated in each well of 6-well plates with the synthesized peptide and the fluorescent-labeled compound in one well. Another well contained the fluorescent-labeled compound alone for 3 h in an incubator (37 °C in a humidified atmosphere of 5% CO2). […] For more details, please refer back to the cytotoxicity method described above.
The cells were transferred to FACS analysis tubes after being washed with phosphate-buffered saline (PBS). The cells were centrifuged 2500 RPM for 5 min with Fisher Scientific accuSpin Micro 17 to precipitate the cells and to allow replacing the supernatant. The cells were then vortexed with Nerl Blood Bank Saline pH 7–7.2 (flow cytometry buffer) and transferred to the tube through a sterile cell strainer 40 µm Nylon Mesh. Finally, the cells were resuspended in flow cytometry buffer and analyzed by flow cytometry (FACSVerse model, Becton Dickinson, San Jose, CA, USA) using the FITC channel and the BD FACSuite software. The device was washed before each experiment, and the flow rate was set at medium. Finally, the cells were analyzed by using FITC channel […] argon laser for the excitation and the emitted 519 nm fluorescence for detection. The data presented was based on the FITC-A mean intensity signal for 10,000 cells collected. All assays were performed in triplicates. Results were evaluated to determine whether the peptides are facilitating the fluorescence compound to cross the membrane.
To determine the mechanism of the cellular uptake, F’-[K(DipR)5] or the physical mixture of the F’-GpYEEI and [DipR]5 were used to measure the fluorescence in the treated CCRF-CEM cells. F’-[K(DipR)5] (5 or 10 µM) or the physical mixture of the F’-GpYEEI (2 µM) and [DipR]5 (5 or 10 µM) were incubated with CCRF-CEM cells over 3 h. After each incubation, the medium containing the peptide and cells was removed. The same protocol as the cellular uptake study was used to prepare the cells as described above. Finally, the cells were resuspended in the buffer and analyzed by flow cytometry using the FITC channel and the BD FACSuite software. The data presented was based on the percentage of FITC-A mean intensity signal for 10,000 cells collected. All assays were performed in triplicates.

[5] = Transmission electron microscopy, self-assembly; assay type: physicochemical; conditions: TEM, 30 μM, dried on grid overnight, not stained
Experimental: Transmission electron microscopy (TEM) was done on a LVEM 5D Microscope model (Delong instruments, Brno, Czech Republic) samples were prepared on an Ultrathin Carbon Film on Lacey Carbon Support Film with 400 mesh copper from Ted Pella. Dilute solutions of 30 μM concentration were used for the TEM analysis. Samples were dropped on grids, evaporated overnight, and not stained. They were incubated for approximately 2 h after thawing from a freezer (0 to −18 °C). Samples were air-dried, and images were obtained with a LVEM5 (Delong Instruments, US) 5 keV field emission gun. The camera was Zyla 5.5 Scientific CMOS with specifications of exposure 50–200 [ms], pixel readout 200 MHz—lowest noise, dynamic range 12-bit (low noise), and summing 1.

SK-OV-3 cells = assay type: cell-based, human; conditions: MTS, n = 3
Experimental: as §1, §2

HEK-293 cells = assay type: cell-based, human; conditions: HEK-293, 25 µM, 24 h incubation, MTS
Experimental: SK-OV-3, CCRF-CEM, HEK-293, MDA-MB-468, LLC-PK1, and MES-SA were used to determine the cytotoxicity of the synthesized linear and cyclic peptides. About 5000, 10,000, and 50,000 cells were seeded for SK-OV-3, HEK-293, and CCRF-CEM cells, respectively, in 0.1 mL of medium per well of 96-well plates. […]
Adhesive cells were detached with 0.05% trypsin/EDTA after 15 min. […] The cell viability was measured by utilizing Multi-Mode Microplate Reader (SpectraMax M5 model, Molecular Devices, San Jose, CA, USA) after adding 20 µL of the MTS reagent to each well and incubating for 3 additional hours. […] The percentage of cell viability was calculated using the following equation:(1) =(Average OD values of samples treated with the compound /Average OD values of no treatment samples )∗100

In the case of `N[C@H](C(=O)O)C(c1ccccc1)c1ccccc1` [Dip, 3,3-diphenyl-L-alanine], the “Log P (partition coefficient)” value [1] is given as 2.93.

For `N=C(N)NCCC[C@@H]1NC(=O)[C@H](C(c2ccccc2)c2ccccc2)NC(=O)[C@H](CCCNC(=N)N)NC(=O)[C@H](C(c2ccccc2)c2ccccc2)NC(=O)[C@H](CCCNC(=N)N)NC(=O)[C@H](C(c2ccccc2)c2ccccc2)NC(=O)[C@H](CCCNC(=N)N)NC(=O)[C@H](C(c2ccccc2)c2ccccc2)NC(=O)[C@H](CCCNC(=N)N)NC(=O)[C@H](C(c2ccccc2)c2ccccc2)NC(=O)[C@H](CCCCNC(=O)c2ccc3c(c2)C(=O)OC32c3ccc(O)cc3Oc3cc(O)ccc32)NC1=O` [F’-[K(DipR)5]] (cyclo([Dip]R[Dip]R[Dip]R[Dip]R[Dip]RK(5FAM))), the cytotoxicity (CCRF-CEM cells [2]; 10 µM, 3 h and 24 h incubations) was “minimal cytotoxicity” and the cytotoxicity (CCRF-CEM cells [2]; 166 µM, 3 h incubation) was “no cytotoxicity”.

In the case of `N=C(N)NCCC[C@@H]1NC(=O)[C@H](Cc2c[nH]c3ccccc23)NC(=O)[C@H](CCCNC(=N)N)NC(=O)[C@H](Cc2c[nH]c3ccccc23)NC(=O)[C@H](CCCNC(=N)N)NC(=O)[C@H](C(c2ccccc2)c2ccccc2)NC(=O)[C@H](CCCNC(=N)N)NC(=O)[C@H](C(c2ccccc2)c2ccccc2)NC(=O)[C@H](CCCNC(=N)N)NC(=O)[C@H](Cc2c[nH]c3ccccc23)NC1=O` [[(DipR)2(WR)3]] (cyclo([Dip]R[Dip]RWRWRWR)), the “Other (random coil)” value [3] is reported as 47.8%, the Turn [3] is reported as 12.8% and the α-helix [3] is reported as 20.8%. For the same molecule, the β-sheet [3] was 18.6%, the “increase of cellular uptake of F’-GpYEEI vs cargo alone” value (CCRF-CEM cells [4]; F’-GpYEEI 2 µM) was “approximately 7 fold” and the “morphology of self-assembled structures” value [5] was “star-shaped particles”. For the same molecule, the “size of self-assembled structures” value [5] was 1000–2000 nm.

In the case of `N=C(N)NCCC[C@@H]1NC(=O)[C@H](Cc2c[nH]c3ccccc23)NC(=O)[C@H](CCCNC(=N)N)NC(=O)[C@H](C(c2ccccc2)c2ccccc2)NC(=O)[C@H](CCCNC(=N)N)NC(=O)[C@H](C(c2ccccc2)c2ccccc2)NC(=O)[C@H](CCCNC(=N)N)NC(=O)[C@H](C(c2ccccc2)c2ccccc2)NC(=O)[C@H](CCCNC(=N)N)NC(=O)[C@H](Cc2c[nH]c3ccccc23)NC1=O` [[(DipR)3(WR)2]] (cyclo([Dip]R[Dip]R[Dip]RWRWR)), the “Other (random coil)” value [3] is reported as 38.4%, the Turn [3] is reported as 17.0% and the α-helix [3] is reported as 13.1%. For the same molecule, the β-sheet [3] was 31.5%.

For `N=C(N)NCCC[C@@H]1NC(=O)[C@H](Cc2c[nH]c3ccccc23)NC(=O)[C@H](CCCNC(=N)N)NC(=O)[C@H](C(c2ccccc2)c2ccccc2)NC(=O)[C@H](CCCNC(=N)N)NC(=O)[C@H](C(c2ccccc2)c2ccccc2)NC(=O)[C@H](CCCNC(=N)N)NC(=O)[C@H](C(c2ccccc2)c2ccccc2)NC(=O)[C@H](CCCNC(=N)N)NC(=O)[C@H](C(c2ccccc2)c2ccccc2)NC1=O` [[(DipR)4(WR)]] (cyclo([Dip]R[Dip]R[Dip]R[Dip]RWR)), the “Other (random coil)” value [3] was 39.7%, the Turn [3] was 16.8% and the α-helix [3] was 8.6%. For the same molecule, the β-sheet [3] was 34.9%.

For `N=C(N)NCCC[C@@H]1NC(=O)[C@H](Cc2c[nH]c3ccccc23)NC(=O)[C@H](CCCNC(=N)N)NC(=O)[C@H](Cc2c[nH]c3ccccc23)NC(=O)[C@H](CCCNC(=N)N)NC(=O)[C@H](C(c2ccccc2)c2ccccc2)NC(=O)[C@H](CCCNC(=N)N)NC(=O)[C@H](Cc2c[nH]c3ccccc23)NC(=O)[C@H](CCCNC(=N)N)NC(=O)[C@H](Cc2c[nH]c3ccccc23)NC1=O` [[(DipR)(WR)4]], the “reduction of cell proliferation” value (SK-OV-3 cells; SK-OV-3, 10 µM, 72 h incubation) was 40%, the “reduction of cell proliferation” value (SK-OV-3 cells; SK-OV-3, 25 µM, 24 h incubation) was 76% and the “reduction of cell proliferation” value (CCRF-CEM cells [2]; 24 h incubation) was 47%. For the same molecule, the “reduction of cell proliferation” value (CCRF-CEM cells [2]; 72 h incubation) was 32%, the “Other (random coil)” value [3] was 40.5% and the Turn [3] was 13.8%. For the same molecule, the α-helix [3] was 28.9%, the β-sheet [3] was 16.8% and the “increase of cellular uptake of F’-d4T vs cargo alone” value (CCRF-CEM cells [4]; F’-d4T 2 µM) was 12 fold. The “reduction of cell proliferation” value (HEK-293 cells) was 8%, the “morphology of self-assembled structures” value [5] was “nanofiber structure” and the “size of self-assembled structures” value [5] was roughly 50 nm.
